Measurements published in US9745283B2, “Uracil derivatives as AXL and c-MET kinase inhibitors” (priority 2011, dated 2017).
Read-outs that look alike come from different tables or passages of the source.

What was measured:
[1] = molecular target: recombinant human baculovirus-expressed cMET (Homo sapiens (Human), UniProt P08581); assay: C-MET Kinase Assay (HTRF KinEASE); format: biochemical
Procedure, shortened: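 HTRF KinEASE format with recombinant human baculovirus-expressed cMET at 8 ng/mL, biotinylated peptide at 0.1 μM and ATP at 0.02 μM. IC50 came from percent control activity versus log concentration, fitted by nonlinear regression to a variable-slope sigmoidal equation with bottom fixed at 0 and top at 100.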

[2] = molecular target: recombinant human baculovirus-expressed AXL (Homo sapiens (Human), UniProt P30530); assay: AXL Kinase Assay (HTRF KinEASE); format: biochemical; details: average of two or more determinations
Protocol: The ability of compounds to inhibit the kinase activity of recombinant human baculovirus-expressed AXL was measured by homogeneous TRF (HTRF) using Cisbio's KinEASE™ assay system in white 384-well Optiplates. Assay buffer contained 1 mM DTT, 2 mM MnCl2, 2% DMSO, […] supplement enzymatic buffer, and 1× enzymatic buffer. A 2× concentration of tyrosine kinase (TK) substrate-biotin/ATP mixture made in assay buffer was added to plates at 10 μL/well using the Multidrop Combi (Thermo Fisher Scientific, Waltham, Mass.). […] Compounds (100 nL), diluted in 100% DMSO on the Biomek FX, (Beckman Coulter, Inc., Brea, Calif.), were transferred to the assay plates using the Biomek FX pintool (2.5% final DMSO in assay). […] Plates were sealed, briefly shaken and incubated at 25° C. for 30 minutes. […] Plates were sealed, briefly shaken and incubated at 25° C. for 1 hour.
Inhibition curves for compounds were generated by plotting percent control activity versus log 10 of the concentration of compound. IC50 values were calculated by nonlinear regression using the sigmoidal dose-response (variable slope) equation in GraphPad Prism as follows: y=bottom+(top−bottom)/(1+10(log IC50−x)*Hill Slope) where y is the % kinase activity at a given concentration of compound, x is the logarithm of the concentration of compound, bottom is the % of control kinase activity at the highest compound concentration tested, and top is the % of control kinase activity at the lowest compound concentration examined. The values for bottom and top were fixed at 0 and 100, respectively.

[3] = average of two or more determinations, read-out: c-MET IC50

Compound	IC50 [1, 3]	IC50 [2]	IC50 [1]
COc1cc2nccc(Oc3ccc(NC(=O)c4nn(C(C)C)c(=O)n(-c5ccc(F)cc5)c4=O)cc3F)c2cc1OC [Example 103, 4-(4-Fluoro-phenyl)-2-isopropyl-3,5-dioxo-2,3,4,5-tetrahydro-[1,2,4]triazine-6-carboxylic acid [4-(6,7-dimethoxy-quinolin-4-yloxy)-3-fluoro-phenyl]-amide]	10 to 100 nM	< 10 nM	
COc1cc2nccc(Oc3ccc(NC(=O)c4nn(C)c(=O)n(CC(C)(C)C)c4=O)cc3F)c2cc1OC [Example 129, 4-(2,2-Dimethylpropyl)-2-methyl-3,5-dioxo-2,3,4,5-tetrahydro-[1,2,4]triazine-6-carboxylic acid [4-(6,7-dimethoxyquinolin-4-yloxy)-3-fluorophenyl]-amide]	10 to 100 nM	< 10 nM	
COc1cc2nccc(Oc3ccc(NC(=O)c4cn(CCc5ccc(F)cc5)c(=O)n(-c5ccc(F)cc5)c4=O)cc3F)c2cc1OC [Example 79, 3-(4-Fluoro-phenyl)-1-[2-(4-fluoro-phenyl)-ethyl]-2,4-dioxo-1,2,3,4-tetrahydro-pyrimidine-5-carboxylic acid [4-(6,7-dimethoxy-quinolin-4-yloxy)-3-fluoro-phenyl]-amide]	10 to 100 nM	< 10 nM	
CCn1cc(C(=O)Nc2ccc(Oc3ccnc4cc(OC)cc(OC)c34)cc2)c(=O)n(-c2ccc(F)cc2)c1=O [Example 39, 1-Ethyl-3-(4-fluorophenyl)-2,4-dioxo-1,2,3,4-tetrahydropyrimidine-5-carboxylic acid [4-(5,7-dimethoxyquinolin-4-yloxy)-phenyl]-amide]		< 10 nM	
C#CCn1cc(C(=O)Nc2ccc(Oc3ccnc4cc(OC)c(OC)cc34)c(F)c2)c(=O)n(-c2ccc(F)cc2)c1=O [Example 61, 3-(4-Fluoro-phenyl)-2,4-dioxo-1-prop-2-ynyl-1,2,3,4-tetrahydro-pyrimidine-5-carboxylic acid [4-(6,7-dimethoxy-quinolin-4-yloxy)-3-fluoro-phenyl]-amide]	< 10 nM	< 10 nM	
COc1cc2nccc(Oc3ccc(NC(=O)c4cn(C(C)C)c(=O)n(-c5ccc(F)cc5)c4=O)cc3)c2cc1OC [Example 23, 3-(4-Fluorophenyl)-1-isopropyl-2,4-dioxo-1,2,3,4-tetrahydropyrimidine-5-carboxylic acid [4-(6,7-dimethoxyquinolin-4-yloxy)phenyl]-amide]	< 10 nM	< 10 nM	
COc1cc2nccc(Oc3ccc(NC(=O)c4cn(CCO)c(=O)n(-c5ccc(F)cc5)c4=O)cc3)c2cc1OC [Example 53, 3-(4-Fluorophenyl)-1-(2-hydroxyethyl)-2,4-dioxo-1,2,3,4-tetrahydropyrimidine-5-carboxylic acid [4-(6,7-dimethoxyquinolin-4-yloxy)phenyl]-amide]	< 10 nM	< 10 nM	
COCCCn1cc(C(=O)Nc2ccc(Oc3ccnc4cc(OC)c(OC)cc34)c(F)c2)c(=O)n(-c2ccc(F)cc2)c1=O [Example 7, 3-(4-Fluorophenyl)-1-(3-methoxypropyl)-2,4-dioxo-1,2,3,4-tetrahydropyrimidine-5-carboxylic acid [4-(6,7-dimethoxyquinolin-4-yloxy)-3-fluorophenyl]-amide]	10 to 100 nM	< 10 nM	
COc1cc2nccc(Oc3ccc(NC(=O)c4nn(C)c(=O)n(CC5CC5)c4=O)cc3F)c2cc1OC [Example 125, 4-Cyclopropylmethyl-2-methyl-3,5-dioxo-2,3,4,5-tetrahydro-[1,2,4]triazine-6-carboxylic acid [4-(6,7-dimethoxy-quinolin-4-yloxy)-3-fluoro-phenyl]-amide]	10 to 100 nM	< 10 nM	
COc1cc2nccc(Oc3ccc(NC(=O)c4cn(CCN5CCCCC5)c(=O)n(-c5ccc(F)cc5)c4=O)cc3F)c2cc1OC [Example 27, 3-(4-Fluorophenyl)-2,4-dioxo-1-(2-piperidin-1-yl-ethyl)-1,2,3,4-tetrahydropyrimidine-5-carboxylic acid [4-(6,7-dimethoxyquinolin-4-yloxy)-3-fluorophenyl]-amide]	10 to 100 nM	< 10 nM	
COc1cc2nccc(Oc3ccc(NC(=O)c4cn(CCC5OCCO5)c(=O)n(-c5ccc(F)cc5)c4=O)cc3F)c2cc1OC [Example 65, 1-[2-(1,3-Dioxolan-2-yl-ethyl)]-3-(4-fluoro-phenyl)-2,4-dioxo-1,2,3,4-tetrahydro-pyrimidine-5-carboxylic acid [4-(6,7-dimethoxy-quinolin-4-yloxy)-3-fluoro-phenyl]-amide]	10 to 100 nM	< 10 nM	
COc1cc2nccc(Oc3ccc(NC(=O)c4nn(C)c(=O)n(CC5CCOCC5)c4=O)cc3F)c2cc1OC [Example 126, 2-Methyl-3,5-dioxo-4-(tetrahydro-pyran-4-ylmethyl)-2,3,4,5-tetrahydro-[1,2,4]triazine-6-carboxylic acid [4-(6,7-dimethoxy-quinolin-4-yloxy)-3-fluoro-phenyl]-amide]	101 to 1000 nM	< 10 nM	
COc1cc2nccc(Oc3ccc(NC(=O)c4cn(CC5CCCO5)c(=O)n(-c5ccc(F)cc5)c4=O)cc3F)c2cc1OC (stereo not drawn) [Example 73, 3-(4-Fluoro-phenyl)-2,4-dioxo-1-(tetrahydro-furan-2-ylmethyl)-1,2,3,4-tetrahydro-pyrimidine-5-carboxylic acid [4-(6,7-dimethoxy-quinolin-4-yloxy)-3-fluoro-phenyl]-amide]	10 to 100 nM	< 10 nM	
COc1cc2nccc(Oc3ccc(NC(=O)c4cn(C(C)C)c(=O)n(-c5ccccc5)c4=O)cc3F)c2cc1OC [Example 101, 1-Isopropyl-2,4-dioxo-3-phenyl-1,2,3,4-tetrahydro-pyrimidine-5-carboxylic acid [4-(6,7-dimethoxy-quinolin-4-yloxy)-3-fluoro-phenyl]-amide]	10 to 100 nM	< 10 nM	
COc1cc2nccc(Oc3ccc(NC(=O)c4nn(C)c(=O)n(CC5CCC5)c4=O)cc3F)c2cc1OC [Example 128, 4-Cyclobutylmethyl-2-methyl-3,5-dioxo-2,3,4,5-tetrahydro-[1,2,4]triazine-6-carboxylic acid [4-(6,7-dimethoxy-quinolin-4-yloxy)-3-fluoro-phenyl]-amide]	10 to 100 nM	< 10 nM	
COc1cc2nccc(Oc3ccc(NC(=O)c4cn(CC5CCOCC5)c(=O)n(-c5ccc(F)cc5)c4=O)cc3F)c2cc1OC [Example 74, 3-(4-Fluoro-phenyl)-2,4-dioxo-1-(tetrahydro-pyran-4-ylmethyl)-1,2,3,4-tetrahydro-pyrimidine-5-carboxylic acid [4-(6,7-dimethoxy-quinolin-4-yloxy)-3-fluoro-phenyl]-amide]	10 to 100 nM	< 10 nM	
COc1cc2nccc(Oc3ccc(NC(=O)c4c[nH]c(=O)n(-c5ccc(F)cc5)c4=O)c(F)c3)c2cc1OC [Example 85, 3-(4-Fluoro-phenyl)-2,4-dioxo-1,2,3,4-tetrahydro-pyrimidine-5-carboxylic acid [4-(6,7-dimethoxy-quinolin-4-yloxy)-2-fluoro-phenyl]-amide]	< 10 nM	< 10 nM	
COc1cc2nccc(Oc3ccc(NC(=O)c4cn(C(C)C)c(=O)n(-c5ccc(F)cc5)c4=O)cc3F)c2cc1OC [Example 5, 3-(4-Fluorophenyl)-1-isopropyl-2,4-dioxo-1,2,3,4-tetrahydropyrimidine-5-carboxylic acid [4-(6,7-dimethoxyquinolin-4-yloxy)-3-fluorophenyl]-amide]		< 10 nM	10 to 100 nM
COc1cc2nccc(Oc3ccc(NC(=O)c4cn(C5CCCC5)c(=O)n(-c5ccc(F)cc5)c4=O)cc3F)c2cc1OC [Example 76, 1-Cyclopentyl-3-(4-fluoro-phenyl)-2,4-dioxo-1,2,3,4-tetrahydro-pyrimidine-5-carboxylic acid [4-(6,7-dimethoxy-quinolin-4-yloxy)-3-fluoro-phenyl]-amide]		< 10 nM	
CCn1cc(C(=O)Nc2ccc(Oc3ccnc4ccc(OC)c(OC)c34)cc2)c(=O)n(-c2ccc(F)cc2)c1=O [Example 167, 1-Ethyl-3-(4-fluoro-phenyl)-2,4-dioxo-1,2,3,4-tetrahydro-pyrimidine-5-carboxylic acid [4-(5,6-dimethoxy-quinolin-4-yloxy)-phenyl]-amide]		< 10 nM	
COc1cc2nccc(Oc3ccc(NC(=O)c4cn(Cc5csc(C)n5)c(=O)n(-c5ccc(F)cc5)c4=O)cc3F)c2cc1OC [Example 75, 3-(4-Fluoro-phenyl)-1-(2-methyl-thiazol-4-ylmethyl)-2,4-dioxo-1,2,3,4-tetrahydro-pyrimidine-5-carboxylic acid [4-(6,7-dimethoxy-quinolin-4-yloxy)-3-fluoro-phenyl]-amide]		< 10 nM	
COc1cc2nccc(Oc3c(C)cc(NC(=O)c4cn(C(C)C)c(=O)n(-c5ccc(F)cc5)c4=O)cc3C)c2cc1OC [Example 162, 3-(4-Fluoro-phenyl)-1-isopropyl-2,4-dioxo-1,2,3,4-tetrahydro-pyrimidine-5-carboxylic acid [4-(6,7-dimethoxy-quinolin-4-yloxy)-3,5-dimethyl-phenyl]-amide]	10 to 100 nM		
